Reference: paper PMC4784888, “Activity Based High-Throughput Screening for Novel O-GlcNAc Transferase Substrates Using a Dynamic Peptide Microarray” (PLoS ONE, 2016)

Tests used:
Type in all cases: biochemical, human
m-OGT [1] = test: O-GlcNAcylation on kinase substrate peptide microarray, m-OGT; conditions: bacterial lysate containing m-OGT (7 μg/μL), 1 mM UDP-GlcNAc, 50 mM Tris-HCl pH 7.5, 30°C, FITC antibody fluorescence, corrected for signal without UDP-GlcNAc
Protocol: (§1) Plasmids encoding s-OGT, m-OGT, and nc-OGT are generous gifts from John A. Hanover (National Institute of Health, USA). OGT overexpression was carried out as previously described. All the plasmids were transformed into E.coli BL21 (DE3) competent cells to produce a cell lysate containing OGT for use or for further purification. Briefly, inoculated a single colony into 50 ml of LB broth media containing 50 μg/ml ampicillin and cells were grown overnight at 37°C with vigorous shaking. 50 mL of the start culture was added into 1L LB broth media containing 50 μg/mL ampicillin and it was incubated with shaking at 200 rpm at 37°C until A600 reached 0.4–0.6. After the culture was cooled to room temperature, 0.5 mM IPTG was added into the culture to induce protein expression. After 16 hours, the cells were collected by centrifugation for 10 min at 4000 RPM at 4°C. The pellets were lysed in lysis buffer containing 20 mM Tris-HCl, pH 7.5, 1 mg/mL lysome, 0.1% triton x-100 and complete mini EDTA-free protease inhibitor cocktail on ice for 10 min and the lysate was sonicated until the DNA was completely sheared. After centrifugation for 10 min at 12000 rpm at 4°C, the supernatant was carefully transferred into a clean tube and was ready for the array assay or for further purification. Protein expression was determined by coomassie blue staining and western blotting using an anti-OGT antibody.
(§2) Peptide O-GlcNAcylation was assessed using PamChip 4 microarray chips with a PamStation 12 instrument (Pamgene international, The Netherlands). The OGT enzyme reaction was prepared essentially as described[26] with minor modifications. Briefly, before addition of the enzyme reaction, the microarray was blocked with blocking buffer (1% BSA in TBS). After 30 cycles (2 cycles/min) blocking, the blocking buffer was aspirated and the microarray was incubated with 40 μL of the enzyme reaction containing OGT (lysate or purified), OGT reaction buffer (50 mM Tris—HCl, pH 7.5;1 mM DTT;12.5 mM MgCl2), a 1:1 pre-incubated mixture of anti-O-GlcNAc and FITC conjugated secondary antibody, and the sugar donor UDP-GlcNAc or water as a control for 480 cycles (2 cycles/min) at 30°C. The microarray was run in parallel by pumping the reaction up and down through the porous membrane at every cycle and a tiff image was obtained at every 20 cycles by a CCD camera inside the PamStation. O-GlcNAcylation of each peptide was detected by a fluorescent signal which was produced by an FITC conjugated antibody bound to the O-GlcNAc moiety on the peptide.
(§3) Image analysis was performed using BioNavigator 6 software (Pamgene international, The Netherlands). Briefly, each image was quantified by automated array grid finding and subsequent quantification of signal and local background for each individual spot. In this work, the signal median-minus-background value was used as the quantitative parameter for the O-GlcNAcylation of the peptide.
(§4) Dynamic peptide microarray (PamChip) technology has been successfully and widely used for kinase activities profiling in the last decade. In the present work, we describe, for the first time, the utility of this peptide microarray format for the identification of human OGT activity. Due to the fact that O-GlcNAcylation and phosphorylation may occur at the same or proximal amino acids on the same protein [9], a peptide microarray of 144 peptides derived from different kinase substrates (S1 Appendix) was selected for an initial test. […] O-GlcNAcylation of peptides in each individual spot was detected by a fluorescent signal produced by the FITC labelled antibody recognizing the O-GlcNAcylated amino acids of converted peptides. Kinetic activity was measured through scanning the signal at regular intervals.
(§5) Fig 2 Identification of human OGT substrates from a kinase substrate and nuclear hormone receptor interaction peptide microarray. […]

s-OGT [2] = test: O-GlcNAcylation on kinase substrate peptide microarray, s-OGT; conditions: bacterial lysate containing s-OGT (7 μg/μL), 1 mM UDP-GlcNAc, 50 mM Tris-HCl pH 7.5, 30°C, FITC antibody fluorescence, corrected for signal without UDP-GlcNAc
Protocol: as §1, §2, §3, §4, §5

nc-OGT [3] = test: O-GlcNAcylation on kinase substrate peptide microarray, nc-OGT; conditions: bacterial lysate containing nc-OGT (7 μg/μL), 1 mM UDP-GlcNAc, 50 mM Tris-HCl pH 7.5, 30°C, FITC antibody fluorescence, corrected for signal without UDP-GlcNAc
Protocol: as §1, §2, §3, §4, §5

nc-OGT [4] = test: O-GlcNAcylation on nuclear hormone receptor interaction peptide microarray, nc-OGT; conditions: bacterial lysate containing nc-OGT (7 μg/μL), 1 mM UDP-GlcNAc, 50 mM Tris-HCl pH 7.5, 30°C, FITC antibody fluorescence, corrected for signal without UDP-GlcNAc
Protocol: as §1, §2, §3, §4, §5

m-OGT [5] = test: O-GlcNAcylation on nuclear hormone receptor interaction peptide microarray, m-OGT; conditions: bacterial lysate containing m-OGT (7 μg/μL), 1 mM UDP-GlcNAc, 50 mM Tris-HCl pH 7.5, 30°C, FITC antibody fluorescence, corrected for signal without UDP-GlcNAc
Protocol: as §1, §2, §3, §4, §5

s-OGT [6] = test: O-GlcNAcylation on nuclear hormone receptor interaction peptide microarray, s-OGT; conditions: bacterial lysate containing s-OGT (7 μg/μL), 1 mM UDP-GlcNAc, 50 mM Tris-HCl pH 7.5, 30°C, FITC antibody fluorescence, corrected for signal without UDP-GlcNAc
Protocol: as §1, §2, §3, §4, §5

[7] = system: OGT (s-OGT, m-OGT, nc-OGT); test: O-GlcNAcylation on nuclear hormone receptor interaction peptide microarray, three isoforms taken together; conditions: for O-GlcNAcylation by three isoforms: nuclear hormone receptor interaction microarray, bacterial lysates s-, m-, nc-OGT, 1 mM UDP-GlcNAc; for identification in microarray assay: nuclear receptor interaction peptide microarray
Protocol: as §1, §2, §3
Dynamic peptide microarray (PamChip) technology has been successfully and widely used for kinase activities profiling in the last decade. In the present work, we describe, for the first time, the utility of this peptide microarray format for the identification of human OGT activity. […] O-GlcNAcylation of peptides in each individual spot was detected by a fluorescent signal produced by the FITC labelled antibody recognizing the O-GlcNAcylated amino acids of converted peptides. Kinetic activity was measured through scanning the signal at regular intervals. […]

| Sequence | OGT isoforms activity, m (m-OGT [1]) | OGT isoforms activity, s (s-OGT [2]) | OGT isoforms activity, nc (nc-OGT [3]) | OGT isoforms activity, nc (nc-OGT [4]) | OGT isoforms activity, m (m-OGT [5]) | OGT isoforms activity, s (s-OGT [6]) | O-GlcNAcylation by three isoforms [7] | identification in microarray assay [7] |
| --- | --- | --- | --- | --- | --- | --- | --- | --- |
| GLGRSITSPTTLY [RBL-2_655_667, kinase substrate microarray peptide …] | P (Signal greater than 5% of the highest signal was defined as positive (P)) | P (Signal greater than 5% of the highest signal was defined as positive (P)) | P (Signal greater than 5% of the highest signal was defined as positive (P)) | – | – | – | – | – |
| HGEDFSKVSQNPILTSLLQITGNG [MED1_591_614] | – | – | – | P (Signal greater than 5% of the highest signal was defined as positive) | N (otherwise negative) | N (otherwise negative) | – | – |
| TVAASPAASGAPTLSRLLEAGPT [BRD8_254_276] | – | – | – | P (Signal greater than 5% of the highest signal was defined as positive) | P (Signal greater than 5% of the highest signal was defined as positive) | P (Signal greater than 5% of the highest signal was defined as positive) | O-GlcNAcylation by three isoforms was observed | – |
| SPSQGAASRPAILYALLSSSLKA [NR0B2_9_31_C9S/C11S] | – | – | – | N (otherwise negative) | P (Signal greater than 5% of the highest signal was defined as positive) | N (otherwise negative) | – | – |
| PATSPKPSVASSQLALLLSSEAH [NRIP1_253_275_C263S] | – | – | – | P (Signal greater than 5% of the highest signal was defined as positive) | P (Signal greater than 5% of the highest signal was defined as positive) | N (otherwise negative) | – | – |
| KWTKRTLSETSSS [KCNB1_489_501, kinase substrate microarray peptide …] | N (otherwise negative (N)) | N (otherwise negative (N)) | P (Signal greater than 5% of the highest signal was defined as positive (P)) | – | – | – | – | – |
| TTSPTAATTQNPVLSKLLMADQD [LCOR_40_62] | – | – | – | N (otherwise negative) | P (Signal greater than 5% of the highest signal was defined as positive) | N (otherwise negative) | – | – |
| GTGGLSAVSSGPRLRLLLLESVS [PELP1_20_42] | – | – | – | – | – | – | – | not identified in our microarray assay |
| QVEFRRLSISAES [KPB1_1011_1023, kinase substrate microarray peptide …] | N (otherwise negative (N)) | P (Signal greater than 5% of the highest signal was defined as positive (P)) | N (otherwise negative (N)) | – | – | – | – | – |
| GSDVHQDSIVLTYLEGLLMHQAA [NRIP1_8_30] | – | – | – | N (otherwise negative) | P (Signal greater than 5% of the highest signal was defined as positive) | N (otherwise negative) | – | – |
| ERSKTVTSFYNQS [BCKD_45_57, kinase substrate microarray peptide …] | N (otherwise negative (N)) | N (otherwise negative (N)) | P (Signal greater than 5% of the highest signal was defined as positive (P)) | – | – | – | – | – |
| LVSPAMREAPTSLSQLLDNSGAP [NCOA6_1479_1501] | – | – | – | P (Signal greater than 5% of the highest signal was defined as positive) | P (Signal greater than 5% of the highest signal was defined as positive) | P (Signal greater than 5% of the highest signal was defined as positive) | O-GlcNAcylation by three isoforms was observed | – |
| SDTLPEVSAIPISLDGLLFPRPS [PRGR_42_64_C64S] | – | – | – | N (otherwise negative) | P (Signal greater than 5% of the highest signal was defined as positive) | P (Signal greater than 5% of the highest signal was defined as positive) | – | – |
| HGSQNRPLLRNSLDDLLGPPSNA [NCOA3_MOUSE_1029_1051] | – | – | – | P (Signal greater than 5% of the highest signal was defined as positive) | N (otherwise negative) | N (otherwise negative) | – | – |
| DSVRKGKQDSTLLASLLQSFSSR [NRIP1_121_143_P124R] | – | – | – | N (otherwise negative) | P (Signal greater than 5% of the highest signal was defined as positive) | N (otherwise negative) | – | – |
| SQSTFNNPRPGQLGRLLPNQNLP [NCOA2_866_888] | – | – | – | N (otherwise negative) | P (Signal greater than 5% of the highest signal was defined as positive) | N (otherwise negative) | – | – |
| EGLRSRSTRMSTVS [KIF2C_105_118_S106G, kinase substrate microarray peptide …] | P (Signal greater than 5% of the highest signal was defined as positive (P)) | N (otherwise negative (N)) | N (otherwise negative (N)) | – | – | – | – | – |
| DNTPHTPTPFKNA [MYBB_513_525, kinase substrate microarray peptide …] | N (otherwise negative (N)) | P (Signal greater than 5% of the highest signal was defined as positive (P)) | N (otherwise negative (N)) | – | – | – | – | – |
| SDGDSKYSQTSHKLVQLLTTTAEQ [NCOA1_620_643] | – | – | – | – | – | – | – | not identified in our microarray assay |
| GQRNISTLSTIQKLPRLLVASSS [WIPI1_313_335_C318S] | – | – | – | P (Signal greater than 5% of the highest signal was defined as positive) | P (Signal greater than 5% of the highest signal was defined as positive) | P (Signal greater than 5% of the highest signal was defined as positive) | O-GlcNAcylation by three isoforms was observed | – |
| QFPLPKNLLAKVIQIATSSSTA [DHX30_241_262] | – | – | – | N (otherwise negative) | P (Signal greater than 5% of the highest signal was defined as positive) | N (otherwise negative) | – | – |
